Read-outs that look alike come from different tables or passages of the source.
Key:
RIOK2 = biological target: T1, RIOK2 (Homo sapiens, UniProt Q9BVS4); assay: binding to immobilized V16742 (IVA1/IVA2, HeLa lysate, MS)
T1 construct: endogenous in cells; host or cells: HeLa S3

JNK2, RIPK2, ERK2, ROCK2 = assay: immunoblot of IVA1/IVA2 eluates from V16742 matrix, HeLa lysate; assay type: binding, human
Procedure: The proteins retained on the beads were immunoblotted with specific antibodies for JNK2, RIPK2, ERK2 and ROCK2, the targets with affinities ranging from high to very low as identified/predicted by mass spectrometry.
Immunoblotting of affinity chromatography eluates from either IVA1 or IVA2 setting was performed with the following antibodies: Rabbit anti-casein kinase Iα, Rabbit anti-JNK2, Rabbit anti-ROCK-II (all from Cell Signaling Technology, Inc.), anti-GSK3β, anti-RIPK2, anti-GAK, anti-ERK2 (Santa Cruz)

CK1a = CK1a (Homo sapiens, UniProt P48729); assay: binding to immobilized V16742 (IVA1/IVA2, HeLa lysate, MS)
GAK = biological target: T2, GAK (Homo sapiens, UniProt O14976); assay: as above
T2 sequence (O14976 1-1311): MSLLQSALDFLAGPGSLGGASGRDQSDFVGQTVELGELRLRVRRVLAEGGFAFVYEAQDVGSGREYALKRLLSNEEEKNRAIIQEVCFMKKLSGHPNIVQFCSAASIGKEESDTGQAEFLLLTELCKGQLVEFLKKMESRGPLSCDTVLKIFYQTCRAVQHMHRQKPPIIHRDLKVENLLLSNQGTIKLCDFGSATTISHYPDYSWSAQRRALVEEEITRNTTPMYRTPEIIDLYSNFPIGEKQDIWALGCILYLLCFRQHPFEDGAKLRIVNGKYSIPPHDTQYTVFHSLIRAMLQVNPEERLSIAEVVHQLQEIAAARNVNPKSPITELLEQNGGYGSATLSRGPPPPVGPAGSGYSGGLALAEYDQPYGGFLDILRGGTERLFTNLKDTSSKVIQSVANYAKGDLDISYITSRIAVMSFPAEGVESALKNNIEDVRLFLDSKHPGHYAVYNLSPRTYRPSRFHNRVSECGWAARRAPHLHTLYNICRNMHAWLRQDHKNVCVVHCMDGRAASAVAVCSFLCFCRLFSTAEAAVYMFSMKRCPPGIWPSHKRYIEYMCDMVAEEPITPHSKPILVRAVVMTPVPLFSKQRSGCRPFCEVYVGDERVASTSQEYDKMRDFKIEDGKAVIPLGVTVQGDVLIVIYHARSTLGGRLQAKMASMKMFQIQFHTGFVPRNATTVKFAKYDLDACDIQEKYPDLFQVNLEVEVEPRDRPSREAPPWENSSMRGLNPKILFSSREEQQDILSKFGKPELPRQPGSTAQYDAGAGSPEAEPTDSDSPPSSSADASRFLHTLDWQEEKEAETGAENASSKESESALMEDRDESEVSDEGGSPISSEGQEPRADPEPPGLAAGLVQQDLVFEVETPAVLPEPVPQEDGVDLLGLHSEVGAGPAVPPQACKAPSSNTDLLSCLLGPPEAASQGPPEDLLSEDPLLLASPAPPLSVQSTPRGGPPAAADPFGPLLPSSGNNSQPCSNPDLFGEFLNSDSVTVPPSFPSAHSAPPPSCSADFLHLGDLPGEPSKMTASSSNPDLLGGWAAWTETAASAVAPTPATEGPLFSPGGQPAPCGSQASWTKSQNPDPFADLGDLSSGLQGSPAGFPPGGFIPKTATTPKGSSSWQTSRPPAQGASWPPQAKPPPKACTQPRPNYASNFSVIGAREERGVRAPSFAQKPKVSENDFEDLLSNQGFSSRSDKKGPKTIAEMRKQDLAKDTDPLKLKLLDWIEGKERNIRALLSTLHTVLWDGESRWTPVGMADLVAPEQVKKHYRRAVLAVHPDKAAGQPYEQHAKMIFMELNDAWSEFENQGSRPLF

GSK3A = GSK3A (Homo sapiens, UniProt P49840); assay: as above
MNK1 (MKNK1) = MNK1 (MKNK1) (Homo sapiens, UniProt Q9BUB5)
Chain of MNK1 (MKNK1) (Q9BUB5 whole entry): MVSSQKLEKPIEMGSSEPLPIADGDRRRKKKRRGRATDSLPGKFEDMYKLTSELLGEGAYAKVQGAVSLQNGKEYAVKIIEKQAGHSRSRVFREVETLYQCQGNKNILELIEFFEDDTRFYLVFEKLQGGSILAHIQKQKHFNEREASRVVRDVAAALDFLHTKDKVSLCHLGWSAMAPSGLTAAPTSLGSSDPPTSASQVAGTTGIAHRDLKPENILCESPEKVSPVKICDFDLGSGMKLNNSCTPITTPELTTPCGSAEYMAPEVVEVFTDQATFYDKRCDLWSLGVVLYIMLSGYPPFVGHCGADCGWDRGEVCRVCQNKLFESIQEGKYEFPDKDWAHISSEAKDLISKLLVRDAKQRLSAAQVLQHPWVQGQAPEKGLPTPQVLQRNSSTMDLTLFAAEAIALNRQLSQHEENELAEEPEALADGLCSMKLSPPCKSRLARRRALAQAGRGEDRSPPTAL

Chain of GSK3A (P49840 whole entry): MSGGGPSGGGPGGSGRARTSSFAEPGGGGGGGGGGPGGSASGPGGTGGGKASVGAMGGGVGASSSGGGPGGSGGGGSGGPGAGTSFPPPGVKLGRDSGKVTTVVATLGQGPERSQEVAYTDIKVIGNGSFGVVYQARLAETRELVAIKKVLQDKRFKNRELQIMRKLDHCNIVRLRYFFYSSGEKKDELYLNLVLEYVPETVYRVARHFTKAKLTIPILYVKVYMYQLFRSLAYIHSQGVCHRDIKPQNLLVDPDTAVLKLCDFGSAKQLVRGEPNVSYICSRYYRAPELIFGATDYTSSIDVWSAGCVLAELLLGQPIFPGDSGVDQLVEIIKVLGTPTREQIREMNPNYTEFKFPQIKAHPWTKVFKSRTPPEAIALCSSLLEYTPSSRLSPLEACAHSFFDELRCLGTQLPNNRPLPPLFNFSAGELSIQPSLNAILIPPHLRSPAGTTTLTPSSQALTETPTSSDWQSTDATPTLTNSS
Chain of CK1a (P48729 whole entry): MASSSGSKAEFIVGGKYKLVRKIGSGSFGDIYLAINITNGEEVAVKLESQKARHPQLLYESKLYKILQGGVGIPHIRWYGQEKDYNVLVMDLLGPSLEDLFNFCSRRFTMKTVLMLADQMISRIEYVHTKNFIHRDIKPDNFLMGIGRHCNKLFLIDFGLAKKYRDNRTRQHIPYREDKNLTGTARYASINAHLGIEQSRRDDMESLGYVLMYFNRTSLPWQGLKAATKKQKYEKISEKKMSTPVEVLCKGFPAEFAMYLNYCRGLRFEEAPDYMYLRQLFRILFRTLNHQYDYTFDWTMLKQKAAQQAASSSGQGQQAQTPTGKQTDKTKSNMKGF
T1 sequence (Q9BVS4 whole entry): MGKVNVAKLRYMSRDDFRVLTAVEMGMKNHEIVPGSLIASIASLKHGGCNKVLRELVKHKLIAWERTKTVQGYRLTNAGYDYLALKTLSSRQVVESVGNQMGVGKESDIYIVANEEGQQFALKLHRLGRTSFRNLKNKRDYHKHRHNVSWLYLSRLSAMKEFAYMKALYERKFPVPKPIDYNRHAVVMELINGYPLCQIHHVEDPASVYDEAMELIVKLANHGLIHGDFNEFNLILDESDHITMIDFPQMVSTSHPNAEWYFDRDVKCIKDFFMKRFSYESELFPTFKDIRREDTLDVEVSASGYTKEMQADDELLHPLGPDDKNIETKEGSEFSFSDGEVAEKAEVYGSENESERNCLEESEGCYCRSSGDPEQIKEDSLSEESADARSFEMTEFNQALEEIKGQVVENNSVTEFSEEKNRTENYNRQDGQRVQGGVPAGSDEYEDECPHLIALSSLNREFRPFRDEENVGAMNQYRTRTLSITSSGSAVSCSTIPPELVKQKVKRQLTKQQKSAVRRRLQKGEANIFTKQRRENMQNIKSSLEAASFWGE

CC(C)n1c(=O)ccc2cnc(Nc3ccc(OCCN)cc3)nc21 [V16742]
Percent bound at various 16742 conc (RIOK2; Experiment 1, 8.74 μM 16742): 11.61% | Percent bound at various 16742 conc (RIOK2; Experiment 1, 52 μM 16742): 58.06% | Kd (RIOK2; Experiment 1, read-out: Kd): 42.6 µM | Percent bound at various 16742 conc (RIOK2; Experiment 2, 1.87 μM 16742): 1.55% | Percent bound at various 16742 conc (RIOK2; Experiment 2, 8.74 μM 16742): 7.91% | Percent bound at various 16742 conc (RIOK2; Experiment 2, 52 μM 16742): 48.34% | Kd (RIOK2; Experiment 2, read-out: Kd): 60.8 µM | Kd (RIOK2; average of two experiments, read-out: Kd Avg): 51.7 µM | interaction of kinases with V16742 matrix, immunoblot (JNK2, RIPK2, ERK2, ROCK2): specifically interacted with the V16742 matrix

CC(C)n1c(=O)ccc2cnc(Nc3ccc(OCCN)cc3)nc21 [compound 16742]
Percent bound at 1.87 μM 16742 conc (CK1a; EXPERIMENT 1): 6.51% | Percent bound at 8.74 μM 16742 conc (CK1a; EXPERIMENT 1): 31.78% | Percent bound at 52 μM 16742 conc (CK1a; EXPERIMENT 1): 60.94% | Kd (CK1a; EXPERIMENT 1, read-out: Kd): 20.8 µM | Percent bound at 1.87 μM 16742 conc (CK1a; EXPERIMENT 2): 5.11% | Percent bound at 8.74 μM 16742 conc (CK1a; EXPERIMENT 2): 34.46% | Percent bound at 52 μM 16742 conc (CK1a; EXPERIMENT 2): 83.66% | Kd (CK1a; EXPERIMENT 2, read-out: Kd): 16.8 µM | Kd (CK1a; read-out: Kd Avg): 18.8 µM | Percent bound at 1.87 μM 16742 conc (GAK; EXPERIMENT 1): 8.35% | Percent bound at 8.74 μM 16742 conc (GAK; EXPERIMENT 1): 29.77% | Percent bound at 52 μM 16742 conc (GAK; EXPERIMENT 1): 69.07% | Kd (GAK; EXPERIMENT 1, read-out: Kd): 21.9 µM | Percent bound at 1.87 μM 16742 conc (GAK; EXPERIMENT 2): 6.15% | Percent bound at 8.74 μM 16742 conc (GAK; EXPERIMENT 2): 27.34% | Percent bound at 52 μM 16742 conc (GAK; EXPERIMENT 2): 63.94% | Kd (GAK; EXPERIMENT 2, read-out: Kd): 26.7 µM | Kd (GAK; read-out: Kd Avg): 24.3 µM | Percent bound at 1.87 μM 16742 conc (GSK3A; EXPERIMENT 1): 7.34% | Percent bound at 8.74 μM 16742 conc (GSK3A; EXPERIMENT 1): 35.37% | Percent bound at 52 μM 16742 conc (GSK3A; EXPERIMENT 1): 84.48% | Kd (GSK3A; EXPERIMENT 1, read-out: Kd): 14.3 µM | Percent bound at 1.87 μM 16742 conc (GSK3A; EXPERIMENT 2): 4.30% | Percent bound at 8.74 μM 16742 conc (GSK3A; EXPERIMENT 2): 29.09% | Percent bound at 52 μM 16742 conc (GSK3A; EXPERIMENT 2): 78.29% | Kd (GSK3A; EXPERIMENT 2, read-out: Kd): 18.8 µM | Kd (GSK3A; read-out: Kd Avg): 16.6 µM

COc1cc2ncnc(Nc3ccc(F)c(Cl)c3)c2cc1OCCCN1CCOCC1 [gefitinib]
rAVERAGE (10 nM/0 nM Gef.) (MNK1 (MKNK1)): 0.76 | rAVERAGE (100 nM/0 nM Gef.) (MNK1 (MKNK1)): 1.00 | rAVERAGE (1000 nM/0 nM Gef.) (MNK1 (MKNK1)): 0.73 | rAVERAGE (10000 nM/0 nM Gef.) (MNK1 (MKNK1)): 0.37
